pIC50: −log10 of the molar value.
Target: recombinant human PAI-1 (Homo sapiens, UniProt P05121)
Assay: Test Example 2: Human PAI-1 Inhibitory Activity (pH 7.4 HEPES buffer, 10 minutes incubation with two-chain tPA)
Type: biochemical
Design: purchased Molecular Innovations, Inc
Details: human PAI-1; calculated from the inhibition rates
Experimental: 0.1 M HEPES, 0.1 M NaCl. 1 mM EDTA. 0.1 % Polyethylene glycol 8,000 (Hampton Research Corporation),
2 mM Dimethyldecylphoshine oxide [Apo-10] (Fluka Corporation)

recombinant human PAI-1, sequence (P05121 24-402): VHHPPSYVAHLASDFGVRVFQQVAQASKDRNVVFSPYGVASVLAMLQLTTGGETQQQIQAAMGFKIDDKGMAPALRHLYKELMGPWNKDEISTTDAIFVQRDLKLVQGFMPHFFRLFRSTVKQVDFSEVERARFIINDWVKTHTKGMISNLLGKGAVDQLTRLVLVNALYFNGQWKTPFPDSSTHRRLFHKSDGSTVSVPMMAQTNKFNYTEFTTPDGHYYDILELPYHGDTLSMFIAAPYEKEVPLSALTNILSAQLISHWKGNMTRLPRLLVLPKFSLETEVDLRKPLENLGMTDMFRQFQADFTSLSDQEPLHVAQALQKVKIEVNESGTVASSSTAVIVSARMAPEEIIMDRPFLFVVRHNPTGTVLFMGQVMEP

Row | SMILES | pIC50
1 | CC(C)(C)c1ccc(Oc2ccc(-c3ccc(C(F)(F)F)cc3)cc2OCC(=O)O)cc1 [Compound 328] | 5.84

Same assay, conditions: read-out: Inhibition Rate of PAI-1 Activity (%)

Row | SMILES | inhibition at 0.1 µM [%] | inhibition at 0.3 µM [%] | inhibition at 1 µM [%] | inhibition at 3 µM [%]
2 | CCCCCOc1cc(-c2ccc(OC(F)(F)F)cc2)cc(OCc2ccc(C(C)(C)C)cc2)c1OCC(=O)O [Compound 301] | 15 | 25 | 96 | 97
3 | CC(C)(C)c1ccc(Oc2ccc(-c3ccc(OC(F)(F)F)cc3)cc2OCC(=O)O)cc1 [Compound 302] | 0 | 9 | 27 | 98
4 | CCCCC(Oc1cc(-c2ccc(OC(F)(F)F)cc2)ccc1Oc1ccc(C(C)(C)C)cc1)C(=O)O (stereo not shown) [Compound 303] | 0 | 13 | 87 | 94
5 | CC(C)(C)c1ccc(COc2cc(-c3ccc(OC(F)(F)F)cc3)ccc2OCC(=O)O)cc1 [Compound 304] | 3 | 1 | 23 | 99
6 | CCCCC(Oc1ccc(-c2ccc(OC(F)(F)F)cc2)cc1Oc1ccc(C(C)(C)C)cc1)C(=O)O (stereo not shown) [Compound 305] | 6 | 9 | 54 | 88
7 | CCCCC(Oc1cc(-c2ccc(OC(F)(F)F)cc2)ccc1OCCCCc1ccccc1)C(=O)O (stereo not shown) [Compound 306] | 0 | 0 | 72 | 97
8 | CCCCC(Oc1cc(-c2ccc(OC(F)(F)F)cc2)ccc1Oc1ccccc1)C(=O)O (stereo not shown) [Compound 307] | 0 | 1 | 22 | 91
9 | CCCCC(Oc1cc(Oc2ccc(OC(F)(F)F)cc2)ccc1OCc1ccc(C(C)(C)C)cc1)C(=O)O (stereo not shown) [Compound 308] | 0 | 22 | 63 | 95
10 | CCCCC(Oc1cc(Oc2ccc(OC(F)(F)F)cc2)ccc1OCCCCc1ccccc1)C(=O)O (stereo not shown) [Compound 309] | 1 | 17 | 66 | 91
11 | CCCCC(Oc1ccc(-c2ccc(OC(F)(F)F)cc2)cc1OCc1ccc(C(C)(C)C)cc1)C(=O)O (stereo not shown) [Compound 310] | 11 | 19 | 72 | 96
12 | CCCCC(Oc1ccc(-c2ccc(OC(F)(F)F)cc2)cc1OCCCCc1ccccc1)C(=O)O (stereo not shown) [Compound 311] | 0 | 11 | 77 | 97
13 | CCCCC(Oc1cc(Oc2ccc(OC(F)(F)F)cc2)ccc1Oc1ccc(C(C)(C)C)cc1)C(=O)O (stereo not shown) [Compound 312] | 17 | 24 | 87 | 94
14 | CCCCC(Oc1cc(-c2ccc(OC(F)(F)F)cc2)ccc1OCc1ccc(C(C)(C)C)cc1)C(=O)O (stereo not shown) [Compound 313] | 1 | 3 | 52 | 93
15 | CC(C)(C)c1ccc(Oc2ccc(-c3cccc(C(F)(F)F)c3)cc2OCC(=O)O)cc1 [Compound 314] | 0 | 5 | 22 | 93
16 | CC(C)(C)c1ccc(Oc2cc(-c3cccc(C(F)(F)F)c3)ccc2OCC(=O)O)cc1 [Compound 315] | 13 | 16 | 60 | > 99
17 | Cc1cccc(-c2ccc(Oc3ccc(C(C)(C)C)cc3)c(OCC(=O)O)c2)c1 [Compound 316] | 10 | 8 | 28 | 84
18 | CCCCC(Oc1cc(-c2cccc(C)c2)ccc1Oc1ccc(C(C)(C)C)cc1)C(=O)O (stereo not shown) [Compound 317] | 14 | 16 | 79 | 94
19 | CCCCC(Oc1cc(-c2cccc(C(F)(F)F)c2)ccc1Oc1ccc(C(C)(C)C)cc1)C(=O)O (stereo not shown) [Compound 318] | 8 | 20 | 90 | > 99
20 | Cc1cccc(-c2ccc(OCC(=O)O)c(Oc3ccc(C(C)(C)C)cc3)c2)c1 [Compound 319] | 0 | 9 | 17 | 70
21 | CCCCC(Oc1ccc(-c2cccc(C(F)(F)F)c2)cc1Oc1ccc(C(C)(C)C)cc1)C(=O)O (stereo not shown) [Compound 320] | 1 | 9 | 70 | 98
22 | CCCCC(Oc1ccc(-c2cccc(C)c2)cc1Oc1ccc(C(C)(C)C)cc1)C(=O)O (stereo not shown) [Compound 321] | 3 | 15 | 86 | 94

Row | SMILES | inhibition at 0.1 µM [%] | inhibition at 0.3 µM [%] | inhibition at 1 µM [%] | inhibition at 3 µM [%]
23 | CCCCCCC(Oc1cc(-c2ccc(OC(F)(F)F)cc2)ccc1Oc1ccccc1)C(=O)O (stereo not shown) [Compound 322] | 0 | 4 | 69 | 92
24 | CCCCCCC(Oc1cc(-c2ccc(OC(F)(F)F)cc2)ccc1Oc1ccc(C(C)(C)C)cc1)C(=O)O (stereo not shown) [Compound 323] | 19 | 16 | 91 | 82
25 | CCCCC(Oc1cc(-c2ccc(OC(F)(F)F)cc2)ccc1OCCCCc1ccc(F)cc1)C(=O)O (stereo not shown) [Compound 324] | 0 | 1 | 66 | 97
26 | CCCCC(Oc1cc(-c2ccc(OC(F)(F)F)cc2)ccc1OCCCCc1ccc(Cl)cc1)C(=O)O (stereo not shown) [Compound 325] | 11 | 5 | 85 | 91
27 | CCCCCCC(Oc1cc(-c2ccc(OC(F)(F)F)cc2)ccc1Oc1ccc(OC(F)(F)F)cc1)C(=O)O (stereo not shown) [Compound 326] | 0 | 28 | 94 | 94
28 | CCCCCCC(Oc1cc(-c2ccc(OC(F)(F)F)cc2)ccc1Oc1ccc(C(F)(F)F)cc1)C(=O)O (stereo not shown) [Compound 327] | 0 | 15 | 94 | 95
29 | CC(C)(C)c1ccc(Oc2ccc(-c3ccc(C(F)(F)F)cc3)cc2OCC(=O)O)cc1 [Compound 328] | 0 | 14 | 30 | > 99
30 | CC(C)(C)c1ccc(Oc2ccc(-c3cccc(OC(F)(F)F)c3)cc2OCC(=O)O)cc1 [Compound 329] | 6 | 11 | 28 | 98
31 | CC(C)(C)c1ccc(Oc2cc(-c3ccc(C(F)(F)F)cc3)ccc2OCC(=O)O)cc1 [Compound 330] | 0 | 1 | 47 | 96
32 | CC(C)(C)c1ccc(Oc2cc(-c3cccc(OC(F)(F)F)c3)ccc2OCC(=O)O)cc1 [Compound 331] | 2 | 1 | 83 | 98
33 | CC(C)(C)c1ccc(Oc2cc(-c3cccc(C(F)(F)F)c3)ccc2CCC(=O)O)cc1 [Compound 332] | 12 | 4 | 29 | > 99
34 | CC(C)c1ccc(Oc2cc(-c3ccc(OC(F)(F)F)cc3)ccc2OCC(=O)O)cc1 [Compound 333] | 4 | 10 | 28 | 91
35 | CC(C)(C)c1ccc(Oc2cc(-c3ccc(OC(F)(F)F)cc3)ccc2CC(=O)O)cc1 [Compound 334] | 0 | 1 | 21 | 87
36 | CC(C)(C)c1cccc(Oc2cc(-c3ccc(OC(F)(F)F)cc3)ccc2/C=C/C(=O)O)c1 [Compound 335] | 4 | 8 | 80 | > 99
37 | CC(C)(C)c1cccc(Oc2cc(-c3ccc(OC(F)(F)F)cc3)ccc2CCC(=O)O)c1 [Compound 336] | 0 | 5 | 45 | > 99
38 | O=C(O)COc1ccc(-c2ccc(OC(F)(F)F)cc2)cc1OCCCCc1ccccc1 [Compound 337] | 2 | 8 | 19 | 97
39 | CC(C)(C)OCCOc1ccc(-c2ccc(OC(F)(F)F)cc2)cc1N(CCCCc1ccccc1)C(=O)C(=O)O [Compound 351] | 2 | 7 | 23 | 84
40 | CCCCCCCOc1ccc(-c2ccc(OC(F)(F)F)cc2)cc1N(CCCCc1ccccc1)C(=O)C(=O)O [Compound 352] | 0 | 4 | 72 | 90
41 | CCCCCCCCOc1ccc(-c2ccc(OC(F)(F)F)cc2)cc1N(CCCCc1ccccc1)C(=O)C(=O)O [Compound 353] | 6 | 19 | 87 | 87
42 | O=C(O)C(=O)N(CCCCc1ccccc1)c1cc(-c2ccc(OC(F)(F)F)cc2)ccc1OCCCCc1ccccc1 [Compound 354] | 5 | 10 | 91 | 89
43 | O=C(O)C(=O)N(CCCCc1ccccc1)c1cc(-c2ccc(OC(F)(F)F)cc2)ccc1OCCCC1CCCC1 [Compound 355] | 2 | 3 | 91 | 86
